A short description of experiment [1]: Inhibition of oxytocin receptor in conscious chicken assessed as inhibition of oxytocin-induced vasodepressor response. Details: species or system Gallus gallus.
Experiment [2] is filed under the species Rattus norvegicus. Description: Antidiuretic activity in rat at 0.1 mg. It counts as functional, Urine.
For experiment [3], the species on record is Rattus norvegicus. Put plainly: Effect on pressor response in rat at 0.1 mg. The class given is functional.
Experiment [4] has as its target T1, Oxytocin receptor (Rattus norvegicus) (UniProt P70536).
T1 sequence (whole entry): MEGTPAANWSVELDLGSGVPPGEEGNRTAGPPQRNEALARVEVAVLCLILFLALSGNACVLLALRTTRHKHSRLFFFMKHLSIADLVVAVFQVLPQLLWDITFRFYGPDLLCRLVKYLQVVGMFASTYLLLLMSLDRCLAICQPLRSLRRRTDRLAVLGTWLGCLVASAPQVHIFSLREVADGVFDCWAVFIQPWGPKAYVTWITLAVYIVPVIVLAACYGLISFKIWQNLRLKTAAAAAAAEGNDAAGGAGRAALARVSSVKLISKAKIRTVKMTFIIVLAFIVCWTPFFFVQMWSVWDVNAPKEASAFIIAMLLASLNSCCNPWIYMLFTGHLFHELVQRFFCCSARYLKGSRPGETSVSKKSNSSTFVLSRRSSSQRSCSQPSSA
Description: Binding affinity to rat oxytocin receptor.

The target in experiment [5] is T1, Oxytocin receptor (Rattus norvegicus). Put plainly: Intrinsic activity at rat oxytocin receptor relative to oxytocin.
The species entered for experiment [6] is Rattus norvegicus. Description: Uterotonic potency in rat. The class given is functional.

The source made the active and inactive calls. The calls are words filed in the database; no cut-off is given here. Positions of bridges follow the written chain, without caps; N, C: chain ends. Non-standard residues stand in square brackets, D forms with d. Residues, ends and D or L forms follow the SMILES beside them. 2Thi = N[C@@H](Cc1cccs1)C(=O)O A value given as a limit tells only on which side of the number the result lay.

By pA2 is commonly meant a measure of antagonist potency on a negative log scale. With `CC[C@H](C)[C@@H]1NC(=O)[C@H](Cc2ccc(O)cc2)NC(=O)[C@@H](N)CSSC[C@@H](C(=O)N2CCC[C@H]2C(=O)N[C@@H](CC(C)C)C(=O)NCC(N)=O)NC(=O)[C@H](CC(N)=O)NC(=O)[C@H](Cc2cccs2)NC1=O` (H-CYI[2Thi]NCPLG-NH2; disulfide 1-6), the pA2 in experiment [1] worked out at 7.44. Besides, the Activity in the experiment filed under Rattus norvegicus [2] was below 0.05 U/mg; in the experiment listed under Rattus norvegicus [3] it was below 0.05 U/mg; in the experiment filed under Rattus norvegicus [6], 0.51 U/mg. Moreover, the outcome in experiment [4] was inactive. In experiment [5], this compound registered an Intrinsic activity of 64%.

Source of the values: ChEMBL document CHEMBL3244018, “Synthesis and some pharmacological properties (4-beta-(2-thienyl)-L-alanine)oxytocin” (J Med Chem, 1978).
